Holding throughout (format): physicochemical
Series [1] can be described thus: Cocrystal screening by slurry method (Comparative Examples 1-1 to 1-6), powder X-ray diffraction. Further details: key to Cocrystal formation, Comparative Example 1* / Cocrystal formation, Comparative Example 1-1 / Cocrystal formation, Comparative Example 1-2 / Cocrystal formation, Comparative Example 1-3 / Cocrystal formation, Comparative Example 1-4 / Cocrystal formation, Comparative Example 1-5 / Cocrystal formation, Comparative Example 1-6: A cocrystal was completely formed.; B: A mixture of a cocrystal and the host compound or guest compound was formed.; C: A cocrystal was not formed (a mixture of the host compound and the guest compound was formed). The settings on record: host theophylline. The procedure:
(§1) 3 mg (0.0167 mmoles) of theophylline and a guest compound shown in Table 1 in an equimolar amount (0.0167 mmoles) to theophylline were weighed and put into a glass container, to which was then added 60 μL of water. These were shaken at room temperature for 7 days, and the obtained residues were subjected to powder X-ray diffraction measurement. 3 mg (0.0167 mmoles) of theophylline and a guest compound shown in Table I in an equimolar amount (0.0167 mmoles) to theophylline were weighed and put into a glass container, to which was then added 60 μL of ethanol. These were shaken at room temperature for 7 days, and the obtained residues were subjected to powder X-ray diffraction measurement. 3 mg (0.0167 mmoles) of theophylline and a guest compound shown in Table 1 in an equimolar amount (0.0167 mmoles) to theophylline were weighed and put into a glass container, to which was then added 60 μL of tetrahydrofuran. This was shaken at room temperature for 7 days, and the obtained residues were subjected to powder X-ray diffraction measurement. 3 mg (0.0167 mmoles) of theophylline and a guest compound shown in Table 1 in an equimolar amount (0.0167 mmoles) to theophylline were weighed and put into a glass container, to which was then added 60 μL of toluene. These were shaken at room temperature for 7 days, and the obtained residues were subjected to powder X-ray diffraction measurement. 3 mg (0.0167 mmoles) of theophylline and a guest compound shown in Table 1 in an equimolar amount (0.0167 mmoles) to theophylline were weighed and put into a glass container, to which was then added 60 μL of ethyl acetate. These were shaken at room temperature for 7 days, and the obtained residues were subjected to powder X-ray diffraction measurement. 3 mg (0.0167 mmoles) of theophylline and a guest compound shown in Table 1 in an equimolar amount (0.0167 mmoles) to theophylline were weighed and put into a glass container, to which was then added 60 μL of acetone. These were shaken at room temperature for 7 days, and the obtained residues were subjected to powder X-ray diffraction measurement.

Series [2] can be described thus: Cocrystal formation with 1-menthol under humidified condition (Example 3). Further details: key: A cocrystal was completely formed.; B: A mixture of a cocrystal and the host compound or guest compound was formed.; C: A cocrystal was not formed (a mixture of the host compound and the guest compound was formed). The note with it: host theophylline, 1-menthol added, 80° C. and 90% RH. The procedure:
About 30 mg (0.167 mmoles) of theophylline and about 29 mg (0.167 mmoles) of L(+)-arginine were weighed and mixed using an agate mortar. […] 15 mg of this mixed powder was weighed and put into a test tube, to which was then added 15 mg of 1-menthol which had been grinded using an agate mortar, followed by vigorously stirring for one minute using a vortex mixer. Thereafter, the obtained mixture of theophylline, L(+)-arginine, and 1-menthol was heated for 6 and 21 hours, respectively in a thermo-hygrostat at 80° C. and 90% RH, and the obtained solids were subjected to powder X-ray diffraction measurement and thermal analysis.

Series [3] is described as follows: Cocrystal formation by heating under humidified condition without menthol (Comparative Example 7). The settings on record: host theophylline, no menthol, 80° C. and 90% RH. Further details: key: A cocrystal was completely formed.; B: A mixture of a cocrystal and the host compound or guest compound was formed.; C: A cocrystal was not formed (a mixture of the host compound and the guest compound was formed). The method, then: About 30 mg (0.167 mmoles) of theophylline and […] of L(+)-arginine were weighed and put into a test tube and mixed using an agate mortar. […] 15 mg of this mixed powder was weighed and put into a test tube and heated for 6 and 21 hours, respectively in a thermo-hygrostat at 80° C. and 90% RH, and the obtained solids were subjected to powder X-ray diffraction measurement and thermal analysis.

The nature of series [4]: Cocrystal screening by slurry method (Comparative Examples 4-1 to 4-6), powder X-ray diffraction. Further details: key: A cocrystal was completely formed.; B: A mixture of a cocrystal and the host compound or guest compound was formed.; C: A cocrystal was not formed (a mixture of the host compound and the guest compound was formed).; —: A residue was not obtained. The settings on record: host carbamazepine, slurry in tetrahydrofuran, room temperature 7 days. The procedure:
as §1, with “(0.0127” for “(0.0167”, “carbamazepine” for “theophylline”, “4” for “1”, “4” for “I”, “These were” for “This was”

Consider `N=C(N)NCCC[C@H](N)C(=O)O` [L(+)-Arginine], for which, in series [1] (slurry in acetone, room temperature 7 days), the “Cocrystal formation, Comparative Example 1-6” value is reported as “C”. Further, the “Cocrystal formation, Comparative Example 1-2” value in series [1] (slurry in ethanol, room temperature 7 days) is “C”. In series [1] (slurry in ethyl acetate, room temperature 7 days), the “Cocrystal formation, Comparative Example 1-5” value is given as “C”. For the same compound, in series [1] (slurry in tetrahydrofuran, room temperature 7 days), the “Cocrystal formation, Comparative Example 1-3” value is “C”. For the same compound, the “Cocrystal formation, Comparative Example 1-4” value in series [1] (slurry in toluene, room temperature 7 days) is “C”. The “Cocrystal with theophylline found, Comparative Example 1-1” value in series [1] (slurry in water) was “could be found out”. The “Cocrystal formation, Comparative Example 1-1” value in series [1] (slurry in water, room temperature 7 days) is recorded as “A”. Besides, in series [1] (slurry summary: A if a cocrystal was formed in any one of Comparative Examples 1-1 to 1-6), the “Cocrystal formation, Comparative Example 1*” value is listed as “A”. In series [2] (6 hours), the “Cocrystal formation, Example 3, Heating for 6 hours” value was “A”. Moreover, the “Cocrystal formation, Example 3, Heating for 21 hours” value in series [2] (21 hours) is listed as “A”. Besides, the “Cocrystal formation, Comparative Example 7, Heating for 6 hours” value in series [3] (6 hours) was “A”. Moreover, the “Cocrystal formation, Comparative Example 7, Heating for 21 hours” value in series [3] (21 hours) is on record as “A”. The “Cocrystal formation, Comparative Example 4-3” value in series [4] was “—”.
